Tests used:
Assay type in all cases: in vivo
[1] = test system: barnyardgrass (Echinochloa crus-galli); assay: Test G Pre-Emergence Protocol; details: evaluated after 13 days
Experimental: (§1) Seeds of corn (Zea mays), giant foxtail (Setaria faberi), barnyardgrass (Echinochloa crus-galli), ivy-leaved morning glory (Ipomoea hederacea), redroot pigweed (Amaranthus retroflexus) and velvetleaf (Abutilon theophrasti) were sown in standard soil in pots. After cultivation for one day under controlled conditions in a glasshouse (at 24/16° C., day/night; 14 hours light; 65% humidity), the plants were sprayed with an aqueous spray solution derived from the formulation of the technical active ingredient in acetone/water (50:50) solution containing 0.5% Tween 20 (polyoxyethylene sorbitan monolaurate, CAS RN 9005-64-5) to give a final dose of 15.625, 62.5 or 250 g/ha of test compound.
(§2) The test plants were then grown on under controlled conditions in a glasshouse (at 24/16° C., day/night; 14 hours light; 65% humidity) and watered twice daily. After 13 days the test was evaluated (100=total damage to plant; 0=no damage to plant). A dash (-) means no test result.

corn (Zea mays) [2] = assay: Test G Pre-Emergence Protocol; details: evaluated after 13 days
Experimental: as §1, §2

[3] = test system: giant foxtail (Setaria faberi); assay: Test G Pre-Emergence Protocol; details: evaluated after 13 days
Experimental: as §1, §2

[4] = test system: ivy-leaved morning glory (Ipomoea hederacea); assay: Test G Pre-Emergence Protocol; details: evaluated after 13 days
Experimental: as §1, §2

[5] = test system: redroot pigweed (Amaranthus retroflexus); assay: Test G Pre-Emergence Protocol; details: evaluated after 13 days
Experimental: as §1, §2

[6] = test system: velvetleaf (Abutilon theophrasti); assay: Test G Pre-Emergence Protocol; details: evaluated after 13 days
Experimental: as §1, §2

[7] = test system: barnyardgrass (Echinochloa crus-galli); assay: Test G Post-Emergence Protocol
Experimental: as §1, with “8 days” for “one day”
as §2

corn (Zea mays) [8] = assay: Test G Post-Emergence Protocol
Experimental: as §1, with “8 days” for “one day”
as §2

[9] = test system: giant foxtail (Setaria faberi); assay: Test G Post-Emergence Protocol
Experimental: as §1, with “8 days” for “one day”
as §2

[10] = test system: ivy-leaved morning glory (Ipomoea hederacea); assay: Test G Post-Emergence Protocol
Experimental: as §1, with “8 days” for “one day”
as §2

[11] = test system: redroot pigweed (Amaranthus retroflexus); assay: Test G Post-Emergence Protocol
Experimental: as §1, with “8 days” for “one day”
as §2

[12] = test system: velvetleaf (Abutilon theophrasti); assay: Test G Post-Emergence Protocol
Experimental: as §1, with “8 days” for “one day”
as §2

[13] = 62.5 g ai/ha, 100=total damage to plant, 0=no damage to plant
[14] = 15.625 g ai/ha, evaluated after 13 days (100=total damage to plant; 0=no damage to plant)
[15] = 62.5 g ai/ha, evaluated after 13 days
[16] = 250 g ai/ha, evaluated after 13 days
[17] = 62.5 g ai/ha, evaluated after 13 days, 100=total damage to plant, 0=no damage to plant
[18] = 250 g ai/ha, evaluated after 13 days, 100=total damage to plant, 0=no damage to plant

CN1CC(c2ccc(C(F)(F)F)cc2)C(C(=O)Nc2[nH]cnc2[N+](=O)[O-])C1=O (racemic) [Compound 1507]
0: Barnyardgrass damage rating (100=total damage to plant; 0=no damage to plant) ([1]; 15.625 g ai/ha) | plant damage rating, Barnyardgrass [1, 13] | Barnyardgrass damage rating (100=total damage to plant; 0=no damage to plant) ([1]; 250 g ai/ha) | Corn damage rating (100=total damage to plant; 0=no damage to plant) (corn (Zea mays) [2]; 15.625 g ai/ha) | plant damage rating, Corn (corn (Zea mays) [2]; [13]) | Corn damage rating (100=total damage to plant; 0=no damage to plant) (corn (Zea mays) [2]; 250 g ai/ha) | Foxtail, Giant damage rating (100=total damage to plant; 0=no damage to plant) ([3]; 15.625 g ai/ha) | plant damage rating, Foxtail, Giant [3, 13] | Foxtail, Giant damage rating (100=total damage to plant; 0=no damage to plant) ([3]; 250 g ai/ha) | Morning-glory, Ivy-leaved damage rating (100=total damage to plant; 0=no damage to plant) ([4]; 15.625 g ai/ha) | plant damage rating, Morningglory, Ivy-leaved [4, 13] | Morningglory, Ivy-leaved damage rating (100=total damage to plant; 0=no damage to plant) ([4]; 250 g ai/ha) | Pigweed, Redroot damage rating (100=total damage to plant; 0=no damage to plant) ([5]; 15.625 g ai/ha) | plant damage rating, Pigweed, Redroot [5, 13] | Pigweed, Redroot damage rating (100=total damage to plant; 0=no damage to plant) ([5]; 250 g ai/ha) | Velvetleaf damage rating (100=total damage to plant; 0=no damage to plant) ([6]; 15.625 g ai/ha) | plant damage rating, Velvetleaf [6, 13] | Velvetleaf damage rating (100=total damage to plant; 0=no damage to plant) ([6]; 250 g ai/ha) | Barnyardgrass damage rating [7, 14] | Barnyardgrass damage rating (100=total damage to plant; 0=no damage to plant) [7, 15] | damage to plant, Barnyardgrass (100=total damage to plant; 0=no damage to plant) [7, 16] | Corn damage rating (corn (Zea mays) [8]; [14]) | Corn damage rating (100=total damage to plant; 0=no damage to plant) (corn (Zea mays) [8]; [15]) | damage to plant, Corn (100=total damage to plant; 0=no damage to plant) (corn (Zea mays) [8]; [16]) | Foxtail, Giant damage rating [9, 14] | Foxtail, Giant damage rating (100=total damage to plant; 0=no damage to plant) [9, 15] | damage to plant, Foxtail, Giant (100=total damage to plant; 0=no damage to plant) [9, 16] | Morningglory, Ivy-leaved damage rating [10, 14] | Morningglory, Ivy-leaved damage rating (100=total damage to plant; 0=no damage to plant) [10, 15] | damage to plant, Morningglory, Ivy-leaved (100=total damage to plant; 0=no damage to plant) [10, 16] | Pigweed, Redroot damage rating [11, 14] | Pigweed, Redroot damage rating (100=total damage to plant; 0=no damage to plant) [11, 15] | damage to plant, Pigweed, Redroot (100=total damage to plant; 0=no damage to plant) [11, 16] | Velvetleaf damage rating [12, 14] | Velvetleaf damage rating (100=total damage to plant; 0=no damage to plant) [12, 15] | damage to plant, Velvetleaf (100=total damage to plant; 0=no damage to plant) [12, 16]

Cc1ccc(NC(=O)C2C(=O)N(C)CC2c2ccc(C(F)(F)F)cc2)c([N+](=O)[O-])c1 (racemic) [Compound 1592]
10: plant damage rating, Barnyardgrass [1, 13] | Morning-glory, Ivy-leaved damage rating (100=total damage to plant; 0=no damage to plant) ([4]; 15.625 g ai/ha) | Morningglory, Ivy-leaved damage rating (100=total damage to plant; 0=no damage to plant) ([4]; 250 g ai/ha) | Barnyardgrass damage rating (100=total damage to plant; 0=no damage to plant) [7, 15] | damage to plant, Corn (100=total damage to plant; 0=no damage to plant) (corn (Zea mays) [8]; [16]) | damage to plant, Pigweed, Redroot (100=total damage to plant; 0=no damage to plant) [11, 16] | Velvetleaf damage rating (100=total damage to plant; 0=no damage to plant) [12, 15] | damage to plant, Velvetleaf (100=total damage to plant; 0=no damage to plant) [12, 16]
40: Morningglory, Ivy-leaved damage rating (100=total damage to plant; 0=no damage to plant) [10, 15]
0: Barnyardgrass damage rating (100=total damage to plant; 0=no damage to plant) ([1]; 15.625 g ai/ha) | Corn damage rating (100=total damage to plant; 0=no damage to plant) (corn (Zea mays) [2]; 15.625 g ai/ha) | plant damage rating, Corn (corn (Zea mays) [2]; [13]) | Corn damage rating (100=total damage to plant; 0=no damage to plant) (corn (Zea mays) [2]; 250 g ai/ha) | Foxtail, Giant damage rating (100=total damage to plant; 0=no damage to plant) ([3]; 15.625 g ai/ha) | plant damage rating, Morningglory, Ivy-leaved [4, 13] | Pigweed, Redroot damage rating (100=total damage to plant; 0=no damage to plant) ([5]; 15.625 g ai/ha) | plant damage rating, Pigweed, Redroot [5, 13] | Velvetleaf damage rating (100=total damage to plant; 0=no damage to plant) ([6]; 15.625 g ai/ha) | plant damage rating, Velvetleaf [6, 13] | Velvetleaf damage rating (100=total damage to plant; 0=no damage to plant) ([6]; 250 g ai/ha) | Barnyardgrass damage rating [7, 14] | Corn damage rating (corn (Zea mays) [8]; [14]) | Corn damage rating (100=total damage to plant; 0=no damage to plant) (corn (Zea mays) [8]; [15]) | Foxtail, Giant damage rating [9, 14] | Morningglory, Ivy-leaved damage rating [10, 14] | Pigweed, Redroot damage rating [11, 14] | Pigweed, Redroot damage rating (100=total damage to plant; 0=no damage to plant) [11, 15] | Velvetleaf damage rating [12, 14]
50: Barnyardgrass damage rating (100=total damage to plant; 0=no damage to plant) ([1]; 250 g ai/ha)
20: plant damage rating, Foxtail, Giant [3, 13]
30: Pigweed, Redroot damage rating (100=total damage to plant; 0=no damage to plant) ([5]; 250 g ai/ha) | damage to plant, Barnyardgrass (100=total damage to plant; 0=no damage to plant) [7, 16]
70: Foxtail, Giant damage rating (100=total damage to plant; 0=no damage to plant) ([3]; 250 g ai/ha) | damage to plant, Foxtail, Giant (100=total damage to plant; 0=no damage to plant) [9, 16]
60: Foxtail, Giant damage rating (100=total damage to plant; 0=no damage to plant) [9, 15] | damage to plant, Morningglory, Ivy-leaved (100=total damage to plant; 0=no damage to plant) [10, 16]

CN1C[C@H](c2ccc(C(F)(F)F)cc2)[C@@H](C(=O)Nc2c[n+]([O-])ccc2C(F)(F)F)C1=O (racemic) [Compound 1732]
10: Pigweed, Redroot damage rating (100=total damage to plant; 0=no damage to plant) ([5]; 250 g ai/ha) | Velvetleaf damage rating (100=total damage to plant; 0=no damage to plant) ([6]; 250 g ai/ha) | Foxtail, Giant damage rating [9, 17] | Pigweed, Redroot damage rating [11, 17] | Velvetleaf damage rating [12, 17]
0: Barnyardgrass damage rating (100=total damage to plant; 0=no damage to plant) ([1]; 15.625 g ai/ha) | Barnyardgrass damage rating [1, 13] | Barnyardgrass damage rating (100=total damage to plant; 0=no damage to plant) ([1]; 250 g ai/ha) | Corn damage rating (100=total damage to plant; 0=no damage to plant) (corn (Zea mays) [2]; 15.625 g ai/ha) | Corn damage rating (corn (Zea mays) [2]; [13]) | Corn damage rating (100=total damage to plant; 0=no damage to plant) (corn (Zea mays) [2]; 250 g ai/ha) | Foxtail, Giant damage rating (100=total damage to plant; 0=no damage to plant) ([3]; 15.625 g ai/ha) | Morningglory, Ivy-leaved damage rating (100=total damage to plant; 0=no damage to plant) ([4]; 15.625 g ai/ha) | Morningglory, Ivy-leaved damage rating [4, 13] | Morningglory, Ivy-leaved damage rating (100=total damage to plant; 0=no damage to plant) ([4]; 250 g ai/ha) | Pigweed, Redroot damage rating (100=total damage to plant; 0=no damage to plant) ([5]; 15.625 g ai/ha) | Pigweed, Redroot damage rating [5, 13] | Velvetleaf damage rating (100=total damage to plant; 0=no damage to plant) ([6]; 15.625 g ai/ha) | Velvetleaf damage rating [6, 13] | Barnyardgrass damage rating [7, 14] | Barnyardgrass damage rating [7, 17] | Corn damage rating (corn (Zea mays) [8]; [14]) | Corn damage rating (corn (Zea mays) [8]; [17]) | Corn damage rating (corn (Zea mays) [8]; [18]) | Foxtail, Giant damage rating [9, 14] | Morningglory, Ivy-leaved damage rating [10, 14] | Morningglory, Ivy-leaved damage rating [10, 17] | Morningglory, Ivy-leaved damage rating [10, 18] | Pigweed, Redroot damage rating [11, 14] | Velvetleaf damage rating [12, 14] | Velvetleaf damage rating [12, 18]
50: Foxtail, Giant damage rating (100=total damage to plant; 0=no damage to plant) ([3]; 250 g ai/ha) | Foxtail, Giant damage rating [9, 18]
20: Foxtail, Giant damage rating [3, 13] | Barnyardgrass damage rating [7, 18] | Pigweed, Redroot damage rating [11, 18]

Source: patent US12077503B2, “Substituted cyclic amides and their use as herbicides” (FMC CORPORATION, priority 2015, dated 2024)
